Source: patent publication US20100196311A1, “METHODS AND COMPOSITIONS CONTAINING mTOR INHIBITORS FOR ENHANCING IMMUNE RESPONSES” (priority 2009, published 2010)

What was measured:
T-bet = T-bet mRNA and protein expression in OT-I cells; format: cell-based, mouse
Experimental: FIG. 4. IL-12-Enhanced mTOR Phosphorylation Is Essential for T-bet-Determined Type I Effector Maturation of CD8^+ T Cells. (A-C) OT-I cells stimulated with Ag+B7.1 (±) IL-12 and rapamycin were evaluated for (A) mRNA for T-bet at the indicated time points by RT-PCR, (B) T-bet protein expression at the indicated time-points by ICS, and (C) T-bet protein expression by ICS before and after antigen recall. **p<0.0035; ***p<0.0005. (D) WT and Tbx21^−1− OT-I cells were stimulated with Ag+B7.1 (±) IL-12 and evaluated for IFN-γ production at the primary and secondary phase. ***p<0.0001. (E and F) OT-I cells stimulated with Ag+B7.1 (±) IL-12 and rapamycin were transduced with T-bet-ER retroviral vector (±) 4-HT (10 nM) and evaluated by ICS for (E) T-bet protein expression by ICS and (F) IFN-γ at secondary phase (168 hr). (G and H) OT-I cells stimulated with Ag+B7.1 (±) insulin (1 U/ml) and rapamycin were evaluated by ICS for (G) S6K phosphorylation at 48 hr and (H) T-bet expression at 72 hr. Experiments shown are representative of at least three (A, B, D, E, and F) and two (C, G, and H) independent experiments with similar outcomes. (Data are presented as mean±SEM).
Retroviral Transduction and T-Bet Induction. T-bet-ER RV (Estrogen Responsive Retro Viral Vector) was cotransfected into Platinum-E cells together with the retroviral packaging vector pCL-Eco using LipoD293 DNA in vitro transfection reagent (SignaGen Laboratories) following the manufacturer's instructions. The medium was replaced the following day, and retroviral supernatant was collected 3 days after transfection. For transduction, naive OT-I cells stimulated for 24 hr, were suspended in retroviral supernatant containing polybrene (8 μg/ml; Sigma-Aldrich), and were spin-transduced at 2200 rpm for 90 min at 30° C. After spin-transduction, cells were cultured in fresh medium containing the same polarizing milieu as before, along with the addition of 4-HT (10 nM). At the end of 72 hr after initial stimulation, cells were washed thrice and maintained in the absence of any stimulation but in the presence of 4-HT and IL-7 (10 ng/ml).
Because the sustained expression of T-bet is necessary and sufficient for imprinting type I effector cell fate (Matsuda et al., 2007) and mTOR inhibition reversed IL-12 imprinted type I effector maturation in OT-I cells (FIG. 3), we next sought to determine whether rapamycin treatment affects T-bet expression in OT-I cells by performing kinetic analysis of T-bet mRNA expression (FIG. 4A). […] Moreover, inhibition of mTOR activity at 12 hr was also able to achieve loss in T-bet expression, similar to the observed loss in type I effector maturation (FIG. 3E).

Eomesodermin = Eomesodermin mRNA and protein expression in OT-I cells; format: cell-based, mouse
Experimental: FIG. 5. Inhibition of mTOR Promotes Persistent Eomes Expression and Phenotypic Markers of Memory in CD8+T Cells. (A and B) OT-I cells stimulated with Ag+B7.1 (±) IL-12 and rapamycin were evaluated for (A) mRNA for Eomes at the indicated time points by RT-PCR and (B) Eomes protein expression at 72 hr by ICS. *p<0.03. (C) OT-I cells stimulated with Ag+B7.1 (±) IL-12 and rapamycin were transduced with T-bet-ER retroviral vector (±) 4-HT (10 nM) and evaluated for Eomes protein expression at 96 hr. (D) OT-I cells stimulated with Ag+B7.1 (±) IL-12 and rapamycin were evaluated for CD62L, CD69, KLRG1, CD127, and CD122 expression at 72 hr. (E) Bcl-2 and Bcl-3 mRNA expression at the indicated time points. (F and G) OT-I cells stimulated with Ag+B7.1 (±) IL-12 and rapamycin for 72 hr were washed twice and rested for an additional 72 hr in the presence of (F) IL-7 (10 ng/ml), *p<0.02, and (G) IL-15 (10 ng/ml). *p<0.02 and percent (%) cell recovery was calculated at 144 hr. […]
The closely related transcription factors T-bet and Eomesodermin are inversely regulated in effector and memory CD8^+T cells. To determine whether mTOR inhibition, which curtailed T-bet expression, led to induction of Eomesodermin, we systematically analyzed Eomesodermin mRNA expression in OT-I cells. […] We also determined whether IFN-α could also regulate mTOR activity and T-bet expression in OT-I cells.

[1] = IFN-α, Ag+B7.1-stimulated OT-I cells

Molecule | T-bet expression (T-bet; [1]) | Eomesodermin expression (Eomesodermin; [1]) | Ag+B7.1-induced T-bet expression (T-bet; IL-12 addition, 24-96 hr) | Eomesodermin expression (Eomesodermin; IL-12 addition to Ag+B7.1 stimulation)
IFN-α | unable to enhance | increases | – | –
IL-12: interleukin-12, cytokine (signal 3) (protein, UniProt P43431 23-215; P43432 23-335, looked up) Interleukin-12 subunit alpha: RVIPVSGPARCLSQSRNLLKTTDDMVKTAREKLKHYSCTAEDIDHEDITRDQTSTLKTCLPLELHKNESCLATRETSSTTRGSCLPPQKTSLMMTLCLGSIYEDLKMYQTEFQAINAALQNHNHQQIILDKGMLVAIDELMQSLNHNGETLRQKPPVGEADPYRVKMKLCILLHAFSTRVVTINRVMGYLSSA Interleukin-12 subunit beta: MWELEKDVYVVEVDWTPDAPGETVNLTCDTPEEDDITWTSDQRHGVIGSGKTLTITVKEFLDAGQYTCHKGGETLSHSHLLLHKKENGIWSTEILKNFKNKTFLKCEAPNYSGRFTCSWLVQRNMDLKFNIKSSSSSPDSRAVTCGMASLSAEKVTLDQRDYEKYSVSCQEDVTCPTAEETLPIELALEARQQNKYENYSTSFFIRDIIKPDPPKNLQMKPLKNSQVEVSWEYPDSWSTPHSYFSLKFFVRIQRKKEKMKETEEGCNQKGAFLVEKTSTEVQCKGGNVCVQAQDRYYNSSCSKWACVPCRVRS | – | – | enhanced and sustained | reduced
